From ChEMBL document CHEMBL4387782, “A new approach to procyanidins synthesis with potent anti-adipogenic effects” (Bioorg Med Chem Lett, 2019)
Activity calls are given as the source filed them. The calls are words filed in the database; no cut-off is given here.

Tests used:
[1] = molecular target: T1, Pancreatic triacylglycerol lipase (Sus scrofa, UniProt P00591); experiment: Inhibition of porcine pancreatic lipase using pNPB as substrate measured after 30 mins
T1 sequence (P00591 whole entry): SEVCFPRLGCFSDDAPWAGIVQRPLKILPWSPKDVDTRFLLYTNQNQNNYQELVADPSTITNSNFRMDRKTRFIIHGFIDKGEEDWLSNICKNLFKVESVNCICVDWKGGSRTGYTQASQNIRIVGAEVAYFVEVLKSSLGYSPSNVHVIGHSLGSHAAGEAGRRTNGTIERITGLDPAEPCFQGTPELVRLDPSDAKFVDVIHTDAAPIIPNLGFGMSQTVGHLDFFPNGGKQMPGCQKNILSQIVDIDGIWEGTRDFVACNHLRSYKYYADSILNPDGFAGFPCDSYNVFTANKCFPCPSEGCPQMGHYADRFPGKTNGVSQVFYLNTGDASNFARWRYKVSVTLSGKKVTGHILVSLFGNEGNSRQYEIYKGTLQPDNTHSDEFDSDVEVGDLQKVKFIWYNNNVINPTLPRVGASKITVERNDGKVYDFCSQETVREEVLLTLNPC

[2] = Cytotoxicity against mouse 3T3L1 cells assessed as reduction in cell viability after 48 hrs by sulforhodamine B assay; type: cell-based; conditions: 3T3-L1 cells
3T3-L1 [3] = experiment: Cytotoxicity against mouse 3T3L1 cells assessed as effect on cell viability up to 50 uM by MTT assay; type: cell-based
3T3-L1 [4] = experiment: Anti-adipogenic activity in mouse 3T3L1 preadipocytes assessed as decrease in lipid accumulation at 10 uM incubated for 8 days in differentiation media by Oil Red O staining based ELISA relative to control; type: functional; parameters: scale not given: the % may be the effect or the level left
3T3-L1 [5] = experiment: Anti-adipogenic activity in mouse 3T3L1 preadipocytes assessed as decrease in lipid accumulation at 5 uM incubated for 8 days in differentiation media by Oil Red O staining based ELISA relative to control; type: functional; parameters: scale not given: the % may be the effect or the level left
3T3-L1 [6] = experiment: Anti-adipogenic activity in mouse 3T3L1 preadipocytes assessed as decrease in lipid accumulation at 2.5 uM incubated for 8 days in differentiation media by Oil Red O staining based ELISA relative to control; type: functional; parameters: scale not given: the % may be the effect or the level left
3T3-L1 [7] = experiment: Inhibition of cell differentiation in mouse 3T3L1 cells assessed as reduction in pre-adipocyte differentiation into matured adipocytes at 2.5 to 10 uM incubated for 8 days in differentiation media by oil red O staining based method; type: functional
[8] = molecular target: T1, Pancreatic triacylglycerol lipase; experiment: Inhibition of porcine pancreatic lipase using pNPB as substrate measured after 30 mins using plasma treated sample

IC50 [1]	Structure (SMILES)	MNTC at 48 h [2]	Activity (3T3-L1 [3])	Activity (3T3-L1 [4])	Activity (3T3-L1 [5])	Activity (3T3-L1 [6])	inhibition (3T3-L1 [7])	IC50 [8]
18.8 µM	Oc1ccc([C@H]2Oc3c(Cc4c(O)c(Cc5c(O)c(Cc6c(O)cc(O)c7c6O[C@H](c6ccc(O)c(O)c6)[C@@H](O)C7)c(O)c6c5O[C@H](c5ccc(O)c(O)c5)[C@@H](O)C6)c5c(c4O)C[C@H](O)[C@@H](c4ccc(O)c(O)c4)O5)c(O)cc(O)c3C[C@@H]2O)cc1O	50 µM	Non-Toxic	67.2%	52.1%	40.1%	Active	
102 µM	Oc1ccc([C@H]2Oc3cc(O)c(Cc4c(O)cc(O)c5c4O[C@H](c4ccc(O)c(O)c4)[C@@H](O)C5)c(O)c3C[C@@H]2O)cc1O	50 µM	Non-Toxic					
45.9 µM	Oc1ccc([C@H]2Oc3c(Cc4c(O)c(Cc5c(O)cc(O)c6c5O[C@H](c5ccc(O)c(O)c5)[C@@H](O)C6)c5c(c4O)C[C@H](O)[C@@H](c4ccc(O)c(O)c4)O5)c(O)cc(O)c3C[C@@H]2O)cc1O	50 µM	Non-Toxic				Active	
78.7 µM	Oc1ccc([C@H]2Oc3cc(O)c(Cc4c(O)cc5c(c4O)C[C@H](O)[C@@H](c4ccc(O)c(O)c4)O5)c(O)c3C[C@@H]2O)cc1O	50 µM	Non-Toxic				Active	
110 µM	Oc1ccc([C@H]2Oc3c(Cc4c(O)cc(O)c5c4O[C@H](c4ccc(O)c(O)c4)[C@@H](O)C5)c(O)cc(O)c3C[C@@H]2O)cc1O	50 µM	Non-Toxic					

Structure (SMILES)	IC50 [1]	MNTC at 48 h [2]	Activity (3T3-L1 [3])	Activity (3T3-L1 [4])	Activity (3T3-L1 [5])	Activity (3T3-L1 [6])	inhibition (3T3-L1 [7])	IC50 [8]
Oc1cc(O)c2c(c1)O[C@H](c1ccc(O)c(O)c1)[C@@H](O)C2 [CIANIDANOL]	> 500 µM							340 µM
